These are literature values, as cited in paper PMC12036195 (Journal of Hematology & Oncology, 2025).

Structures are written as SMILES.

The subject of this series is r/r PTCL.

Consider `N#CC[C@H](C1CCCC1)n1cc(-c2ncnc3[nH]ccc23)cn1` [ruxolitinib], for which the Response rate is 25%.
